Assay results as given in paper PMC6796659, “Topoisomerase IB poisons induce histone H2A phosphorylation as a response to DNA damage in Leishmania infantum” (International Journal for Parasitology: Drugs and Drug …, 2019).
Read-outs that look alike come from different tables or passages of the source.

Columns and labels:
[1] = tested on: iRFP L. infantum promastigotes; experiment: Antileishmanial activity on free-living iRFP L. infantum promastigotes (infrared fluorescence viability); type: cell-based; conditions: Leishmania infantum, 72 h, 26 °C
Protocol: Histone phosphorylation assays were performed in promastigotes of L. infantum BCN 150 strain, whereas the antiparasitic activity of the compounds was assessed on the transgenic strain that constitutively expresses the irfp gene encoding the infrared iRFP protein (iRFP L. infantum strain) ([Calvo-Álvarez et al., 2015]), which is derived from L. infantum BCN 150. Both strains were grown at 26 °C in M-199 medium (Gibco) supplemented with 25 mM HEPES pH 7.2, 0.1 mM adenine, 0.0005% (w/v) hemin, 2 μg/mL biopterin, 0.0001% (w/v) biotin, 10% (v/v) heat-inactivated fetal bovine serum (FBS) and an antibiotic cocktail comprising 50 U/mL penicillin and 50 μg/mL streptomycin.
(§1) The antileishmanial activity of the compounds was tested both in promastigotes and in amastigotes infecting mouse splenocytes. For this purpose, 384-well optical bottom black plates (Thermo Scientific) were seeded either with free-living iRFP L. infantum promastigotes or with splenic explants infected with iRFP L. infantum amastigotes, which were incubated at 26 °C or 37 °C, respectively. The viability of both iRFP L. infantum stages was measured by recording the fluorescence emitted by viable cells at 708 nm in an Odyssey (Li-Cor) infrared imaging system after a 72-h period of incubation with different concentrations of the compounds. Dose-response curves were obtained by plotting the infrared fluorescence emission of viable parasites vs. different concentrations of testing compounds and were fitted by nonlinear analysis using the Sigma-Plot 10.0 statistical package. The reduction of infrared emission with respect to the negative control was used to determine the 50% effective concentration to kill the parasites (EC50). Both controls and treated groups were tested with DMSO (drug vehicle) concentrations below 0.1%. All compounds and controls were assayed in triplicate.

[2] = tested on: iRFP L. infantum amastigotes infecting mouse splenocytes; experiment: Antileishmanial activity on iRFP L. infantum amastigotes in ex vivo murine splenic explants; type: cell-based, Leishmania infantum; conditions: for SI (Selectivity Index): CC50 (splenocytes)/EC50 (amastigotes); for EC50: Leishmania infantum, Splenocyte, 72 h, read-out: EC50 (μM) L. infantum amastigotes
Protocol: Five-week BALB/c female mice infected intraperitoneally with 1.5 × 10^9 metacyclic iRFP L. infantum promastigotes were sacrificed to eviscerate their spleens, which were processed to obtain a suspension of primary splenocytes. Briefly, freshly dissected spleens were washed with cold phosphate-buffered saline (PBS), cut in small pieces and incubated for 20 min with 5 mL of 2 mg/mL collagenase D (Sigma) prepared in buffer (10 mM HEPES, pH 7.4, 150 mM NaCl, 5 mM KCl, 1 mM MgCl2 and 1.8 mM CaCl2). Then, the cell suspension was passed through a 100 μm cell strainer, harvested by centrifugation (500×g for 7 min at 4 °C), washed twice with PBS, and resuspended in RPMI medium (Gibco) supplemented with 10 mM HEPES, 1 mM sodium pyruvate, 1xRPMI 1640 vitamin mix, 10% (v/v) FBS, 50 U/mL penicillin and 50 μg/mL streptomycin. The cell suspension was cultured in 384-well optical bottom black plates (Thermo Scientific) at 37 °C under 5% CO2 atmosphere.
as §1

[3] = Cytotoxicity on uninfected mouse splenocytes (Alamar Blue); type: cell-based; conditions: BALB/c, freshly isolated uninfected mouse splenocytes, non-infected mouse splenocytes, read-out: CC50 (μM) Murine Splenocytes
Protocol: Finally, the cytotoxicity of the compounds was assessed on freshly-isolated mouse splenocytes, which were obtained from uninfected BALB/c mice according to the protocol previously described. Viability of uninfected splenocytes was used to determine the cytotoxic concentration 50 (CC50) by means of the Alamar Blue staining method, according to manufacturer's recommendations (Invitrogen). Selectivity index (SI) for each compound was calculated as the ratio between the CC50 value obtained for splenic cells and the EC50 value for amastigotes.

[4] = molecular target: T1, human Top IB (hTopIB) (Homo sapiens, UniProt P11387); experiment: Relaxation of supercoiled pSK DNA by recombinant hTopIB; type: biochemical
T1 construct: made in house
T1 sequence (P11387 1-765): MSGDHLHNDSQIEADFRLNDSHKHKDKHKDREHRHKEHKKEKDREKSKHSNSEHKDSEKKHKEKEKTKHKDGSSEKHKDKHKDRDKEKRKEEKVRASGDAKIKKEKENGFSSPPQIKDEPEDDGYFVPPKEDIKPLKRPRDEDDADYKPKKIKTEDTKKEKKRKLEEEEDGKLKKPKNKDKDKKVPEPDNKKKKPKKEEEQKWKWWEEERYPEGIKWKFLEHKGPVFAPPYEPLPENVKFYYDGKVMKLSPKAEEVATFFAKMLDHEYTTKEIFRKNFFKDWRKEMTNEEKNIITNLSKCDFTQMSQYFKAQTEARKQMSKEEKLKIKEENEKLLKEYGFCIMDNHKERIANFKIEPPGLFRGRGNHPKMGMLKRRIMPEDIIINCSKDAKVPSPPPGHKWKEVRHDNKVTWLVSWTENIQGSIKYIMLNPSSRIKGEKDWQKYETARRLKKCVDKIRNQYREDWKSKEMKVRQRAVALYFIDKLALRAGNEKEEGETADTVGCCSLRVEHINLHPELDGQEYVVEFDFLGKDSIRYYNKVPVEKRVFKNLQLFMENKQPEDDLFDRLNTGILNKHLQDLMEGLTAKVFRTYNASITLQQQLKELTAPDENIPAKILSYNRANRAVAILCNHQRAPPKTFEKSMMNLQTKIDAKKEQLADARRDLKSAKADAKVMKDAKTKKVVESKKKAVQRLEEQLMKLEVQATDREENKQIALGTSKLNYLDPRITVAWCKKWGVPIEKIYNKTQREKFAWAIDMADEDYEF
Protocol: (§2) Expression and purification of LTopIB and hTopIB were carried out according to a previously standardized protocol ([Villa et al., 2003]). The effect of indenoisoquinolines (compounds 1 to 20) on recombinant LTopIB and hTopIB was determined by measuring the relaxation of negatively supercoiled pBluescript-SK DNA plasmid (pSK). Briefly, in a total volume of 20 μL, 100 U of recombinant TopIB were incubated with 0.5 μg of pSK DNA in 10 mM Tris-HCl buffer (pH 7.5), 5 mM MgCl2, 5 mM dithiothreitol (DTT), 0.1 mM EDTA, […] bovine serum albumin, and 150 mM KCl. Different concentrations of indenoisoquinolines were also added. Following a 4-min incubation period at 25 °C, reactions were stopped with 1% (w/v) SDS, and incubated for one extra hour at 37 °C in the presence of 1 mg/mL proteinase K. Subsequently, samples were extracted with 1 vol phenol-chloroform mixture and were loaded on a 1% agarose gel containing 0.1 μg/mL ethidium bromide. The gel was run for 16 h at 4 V/cm, and the images were acquired using a G-Box system (Syngene, United Kingdom).

[5] = tested on: Leishmania topoisomerase IB (LTopIB); experiment: Relaxation of supercoiled pSK DNA by recombinant LTopIB; type: biochemical; set-up: key: +++: inhibition at 1 μM; ++: inhibition at 10 μM; +: inhibition at 100 μM; 0: no inhibition
Protocol: as §2

[6] = tested on: L. infantum promastigotes; experiment: Cell cycle analysis by flow cytometry (propidium iodide); type: cell-based, Leishmania infantum; conditions: 1 μM single dose, 0, 8, 24, 48 h
Protocol: One million promastigotes untreated or treated with 1 μM of different indenoisoquinolines were harvested by centrifugation after 0, 8, 24 and 48 h exposure. Promastigotes were washed twice with PBS and fixed by 1 h incubation with 70% methanol at 4 °C. After incubation, cells were centrifuged, washed again with PBS and resuspended in 0.5 mL of citrate buffer (45 mM MgCl2, 20 mM MOPS, 30 mM sodium citrate, 0.1% Triton X-100, pH = 7). Finally, samples with RNAase (50 μg/mL) and propidium iodide ([…]) were incubated at 37 °C during 30 min and analyzed at 589 nm by flow cytometry (Cyan ADP Dako).

[7] = splenic-infecting iRFP L. infantum amastigotes, 37 °C

| SMILES | EC50 [1] [µM] | SI (Selectivity Index) [2] | EC50 [2, 7] [µM] | CC50 [3] [µM] | hTopIB inhibition ([4]; Table 1) | LTopIB inhibition ([5]; Table 1) | effect on cell cycle of promastigotes [6] | EC50 [2] [µM] | hTopIB inhibition ([4]; Table 2) | LTopIB inhibition ([5]; Table 2) | hTopIB inhibition ([4]; Table 3) | LTopIB inhibition ([5]; Table 3) |
| --- | --- | --- | --- | --- | --- | --- | --- | --- | --- | --- | --- | --- |
| C[C@@H]1[C@H](O)[C@@H](C)/C=C/C=C/C=C/C=C/C=C/C=C/C=C/[C@H](O[C@@H]2O[C@H](C)[C@@H](O)[C@H](N)[C@@H]2O)C[C@@H]2O[C@](O)(C[C@@H](O)C[C@@H](O)[C@H](O)CC[C@@H](O)C[C@@H](O)CC(=O)O[C@H]1C)C[C@H](O)[C@H]2C(=O)O [AMB, amphotericin B, reference compound] | 0.8 ± 0.1 | >62 | 0.3 | > 20 |  |  |  |  |  |  |  |  |
| NCCn1c2c(c3ccccc3c1=O)C(=O)c1ccccc1-2 [Compound 1] | 0.94 ± 0.03 | 24.4 | 0.04 ± 0.09 | 1.1 ± 0.06 | ++ (inhibition at 10 μM) | +++ (inhibition at 1 μM) |  |  |  |  |  |  |
| COc1ccc2c(c1)C(=O)c1c-2n(CCCN)c(=O)c2cc([N+](=O)[O-])ccc12 [Compound 3] | 0.2 ± 0.01 |  | > 10 | 0.41 ± 0.19 | +++ (inhibition at 1 μM) | ++ (inhibition at 10 μM) | arrested the cell cycle of promastigotes in S phase |  |  |  |  |  |
| COC(=O)c1ccc2c(c1)C(=O)c1c-2n(CCCN)c(=O)c2cc([N+](=O)[O-])ccc12 [Compound 4] | 1.1 ± 0.07 | 4.2 | 0.14 ± 0.08 | 0.59 ± 0.02 | +++ (inhibition at 1 μM) | ++ (inhibition at 10 μM) |  |  |  |  |  |  |
| CCOc1ccc2c(c1)C(=O)c1c-2n(CCCN)c(=O)c2cc([N+](=O)[O-])ccc12 [Compound 5] | 0.54 ± 0.05 | 4.4 | 0.08 | 0.35 ± 0.03 | +++ (inhibition at 1 μM) | ++ (inhibition at 10 μM) |  |  |  |  |  |  |
| NCCCn1c2c(c3ccc([N+](=O)[O-])cc3c1=O)C(=O)c1cc(Br)ccc1-2 [Compound 6] | 0.52 ± 0.03 | 6.2 | 0.13 ± 0.03 | 0.81 ± 0.09 | +++ (inhibition at 1 μM) | +++ (inhibition at 1 μM) |  |  |  |  |  |  |
| NCCCn1c2c(c3ccc([N+](=O)[O-])cc3c1=O)C(=O)c1cc3c(cc1-2)OCO3 [Compound 8] | 0.06 ± 0.01 | 2.8 | 0.02 ± 0.05 | 0.05 ± 0.01 | +++ (inhibition at 1 μM) | +++ (inhibition at 1 μM) |  |  |  |  |  |  |
| NCCCCn1c2c(c3ccccc3c1=O)C(=O)c1ccccc1-2 [Compound 9] | 0.43 ± 0.08 |  |  | 2.11 ± 0.22 | +++ (inhibition at 1 μM) | +++ (inhibition at 1 μM) |  | 0.73 ± 0.01 |  |  |  |  |
| NCCCCCn1c2c(c3ccccc3c1=O)C(=O)c1ccccc1-2 [Compound 10] | 2.4 ± 1.03 |  | 2.29 ± 1.05 | 1.35 ± 0.19 | +++ (inhibition at 1 μM) | +++ (inhibition at 1 μM) |  |  |  |  |  |  |
| O=C1c2ccccc2-c2c1c1ccc([N+](=O)[O-])cc1c(=O)n2CCCn1ccnc1 [Compound 11] | 0.45 ± 0.5 | 11 | 0.06 ± 0.02 | 0.71 ± 0.01 |  |  |  |  | +++ (inhibition at 1 μM) | +++ (inhibition at 1 μM) |  |  |
| COc1ccc2c(c1)C(=O)c1c-2n(CCCn2ccnc2)c(=O)c2cc([N+](=O)[O-])ccc12 [Compound 12] | > 10 | 33 | 0.01 | 0.33 ± 0.05 |  |  | arrested the cell cycle of promastigotes in S phase |  | +++ (inhibition at 1 μM) | ++ (inhibition at 10 μM) |  |  |
| O=C1c2cccnc2-c2c1c1ccccc1c(=O)n2CCCn1ccnc1 [Compound 13] | 2.89 ± 0.14 | 4.1 | 0.59 ± 0.6 | 2.4 ± 0.35 |  |  |  |  | ++ (inhibition at 10 μM) | + (inhibition at 100 μM) |  |  |
| COc1cc2c3c(n(CCCn4ccnc4)c(=O)c2cc1OC)-c1cc2c(cc1C3=O)OCO2 [Compound 14] | 1.85 ± 0.18 | 3.0 | 0.01 | 0.03 |  |  |  |  | +++ (inhibition at 1 μM) | 0 |  |  |
| O=C1c2ccccc2-c2c1c1ccc([N+](=O)[O-])cc1c(=O)n2CCCN1CCOCC1 [Compound 15] | > 10 | 30 | 0.6 ± 0.42 | 18 ± 5.3 |  |  |  |  |  |  | +++ (inhibition at 1 μM) | 0 |
| COc1ccc2c(c1)C(=O)c1c-2n(CCCN2CCOCC2)c(=O)c2cc([N+](=O)[O-])ccc12 [Compound 16] | > 10 |  | 1.86 ± 0.29 | 0.59 ± 0.08 |  |  |  |  |  |  | +++ (inhibition at 1 μM) | 0 |
